Experimental findings from patent publication US5235061A, “Fungicidal (1H-1,2,4-triazolyl)disilaalkanes” (priority 1991, dated 1993) are described below.

Like-named read-outs stand apart in the source and are kept apart here.

Experiment in all cases: In vitro percent disease control (radii of spore growth on agar)
What all share (assay type): cell-based

In data set [1] the test system is Botryosphaeria dothidea Macrophoma sp. The settings on record: Botryosphaeria dothidea, read-out: % controlled, Bo.do (Ma.). Put shortly:
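Compounds (100 and 50 ppm, 10% acetone in water) were mixed into potato-sucrose-agar and the fungus was spotted centrally, then incubated several days in a growth room. Percent disease control came from radii of spore growth.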

A further data set has as its system Phytophthora capsisi. The settings on record: Phytophthora, read-out: % controlled, Phy ca. Summed up: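 Compounds dissolved in acetone (10% of final volume) then water at 100 ppm and 50 ppm, mixed into potato-sucrose-agar; fungus spotted at plate centre and incubated several days. Percent disease control derived from radii of spore growth.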
A further data set has as its system Pyricalaria oryzae. The settings on record: for inhibition of growth at 50 ppm: read-out: % controlled, Py. or., 50 ppm; for inhibition of growth at 100 ppm: read-out: % controlled, Py. or., 100 ppm. Put shortly:
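Compounds at 100 ppm and 50 ppm (10% acetone in water) mixed into potato-sucrose-agar, P. oryzae spotted centrally and incubated several days. Percent disease control derived from radii of spore growth.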

The test system of another data set is Glomerella cingulata. The settings on record: Colletotrichum gloeosporioides, read-out: % controlled, Glo. Put shortly: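 Compounds were dissolved in acetone (10% of final volume) plus water at 100 ppm and 50 ppm and mixed into potato-sucrose agar. G. cingulata was spotted centrally and incubated for several days in a growth room. Percent disease control was derived from the radii of spore growth.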

The test system of the next data set is Physalospora baccae. The settings on record: read-out: % controlled, Phy ba. Summed up: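 Compounds at 100 and 50 ppm (10% acetone) mixed into potato-sucrose-agar, fungus spotted centrally and grown several days in a growth room. Percent disease control derived from radii of spore growth.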
Another data set deals with Rhizoctonia solani. The settings on record: Rhizoctonia solani, read-out: % controlled, Rhy. so. Summed up:
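Test compounds at 100 ppm and 50 ppm (acetone 10% of final volume, then water) were mixed into potato-sucrose-agar, and the fungus was spotted at the dish centre. Dishes were incubated several days in a growth room. Percent disease control was derived from the radii of spore growth.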

For the next data set, the system named is Fusarium moniliforme. Put shortly: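 Compounds in 10% acetone/water at 100 and 50 ppm were mixed into potato-sucrose-agar, with Fusarium moniliforme spotted centrally. After several days' incubation, percent disease control was derived from radii of spore growth.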
A further data set deals with Alternaria mali. The settings on record: Alternaria mali, read-out: % controlled, Al. Put shortly:
(§1)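 Compounds in acetone (10% of final volume) diluted with water to 100 and 50 ppm, then mixed into potato-sucrose-agar with each fungus spotted centrally. Incubated several days in a growth room; percent disease control derived from radii of spore growth.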

A further data set concerns Rhizopus sp. The settings on record: Rhizopus. Put shortly:
as §1

Another data set concerns Botry tris cinerea. The settings on record: read-out: % controlled, Bo ci. Put shortly: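 Compounds at 100 and 50 ppm (acetone 10% of final volume, rest water) mixed into potato-sucrose agar; Botrytis cinerea spotted at dish centre. After several days' incubation, percent disease control calculated from radii of spore growth.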
[2] abbreviates: 50 ppm, read-out: % controlled, Rhi. sp.
Setting [3] is: read-out: % controlled, Rhi. sp.

`COc1ccc([Si](C)(Cn2cncn2)C[Si](C)(C)c2ccc(Cl)cc2)cc1` (stereo not drawn) [4-(4-chlorophenyl)-2-(4-methoxyphenyl)-2,4-dimethyl-2,4-disila-1-(1H-1,2,4-triazol-1-yl)pentane]: the inhibition of growth at 50 ppm in data set [1] amounted to 34%; with Phytophthora capsisi it was 43%; in the data set on Pyricalaria oryzae, 100%; in the data set with Glomerella cingulata, 56%; in the data set with Physalospora baccae, 50%; in the data set on Rhizoctonia solani, 100%. In addition, the inhibition of growth at 50 ppm in the data set with Alternaria mali worked out at 30%; in the data set with Rhizopus sp. (setting [2]) it was 32%; in the data set with Botry tris cinerea, 40%. Also, the inhibition of growth at 100 ppm in data set [1] worked out at 66%; in the data set on Phytophthora capsisi, 59%; in the data set on Pyricalaria oryzae it was 100%; with Glomerella cingulata, 82%; in the data set with Physalospora baccae, 60%; in the data set on Rhizoctonia solani it was 100%. Further, the inhibition of growth at 100 ppm in the data set on Alternaria mali was found to be 62%; in the data set on Rhizopus sp. (setting [3]), 48%; with Botry tris cinerea, 80%. Besides, the “% controlled, Fu. mo.” value with Fusarium moniliforme (50 ppm) is 28%; with Fusarium moniliforme (100 ppm) it was 41%.

As for `CCOc1ccc([Si](C)(C)C[Si](C)(Cn2cncn2)c2ccc(F)cc2)cc1` (stereo not drawn) [4-(4-ethoxyphenyl)-2-(4-fluorophenyl)-2,4-dimethyl-2,4-disila-1-(1H-1,2,4-triazol-1-yl)pentane], the inhibition of growth at 50 ppm came out at 74% in data set [1]; 50% in the data set with Phytophthora capsisi; 100% with Pyricalaria oryzae; 71% in the data set on Glomerella cingulata; 53% in the data set with Physalospora baccae; 78% with Rhizoctonia solani. In addition, the inhibition of growth at 50 ppm with Alternaria mali amounted to 63%; in the data set on Rhizopus sp. (read-out: % controlled, Rhi. sp., 50 ppm) it was 19%; in the data set on Botry tris cinerea, 69%. Besides, the inhibition of growth at 100 ppm in data set [1] was 78%; in the data set with Phytophthora capsisi it was 60%; in the data set with Pyricalaria oryzae, 100%; in the data set on Glomerella cingulata it was 77%; with Physalospora baccae, 74%; in the data set with Rhizoctonia solani it was 78%. Besides, the values for the inhibition of growth at 100 ppm with Alternaria mali, in the data set on Rhizopus sp. (setting [3]) and in the data set with Botry tris cinerea were 72%, 43% and 66%, respectively. Moreover, the “% controlled, Fu. mo.” value was 58% in the data set with Fusarium moniliforme (50 ppm) and 63% with Fusarium moniliforme (100 ppm).

`C[Si](C)(Cc1ccc(F)cc1)C[Si](C)(Cn1cncn1)c1ccc(F)cc1` (stereo not drawn) [4-(4-fluorobenzyl)-2-(4-fluorophenyl)-2,4-dimethyl-2,4-disila-1-(1H-1,2,4-triazol-1-yl)pentane]: the inhibition of growth at 50 ppm in data set [1] turned out to be 40%; with Phytophthora capsisi it was 3%; in the data set with Pyricalaria oryzae it was 50%; in the data set on Glomerella cingulata, 0%; in the data set with Physalospora baccae it was 26%; in the data set on Rhizoctonia solani it was 36%. The inhibition of growth at 50 ppm in the data set on Alternaria mali worked out at 38%; in the data set on Rhizopus sp. (setting [2]), 21%; with Botry tris cinerea it was 0%. Also, the inhibition of growth at 100 ppm in data set [1] was determined as 49%; in the data set on Phytophthora capsisi, 3%; with Pyricalaria oryzae it was 57%; in the data set with Glomerella cingulata it was 0%; with Physalospora baccae it was 30%; in the data set with Rhizoctonia solani, 36%. The inhibition of growth at 100 ppm amounted to 43% with Alternaria mali, 24% in the data set on Rhizopus sp. (setting [3]) and 0% with Botry tris cinerea. Also, the “% controlled, Fu. mo.” value in the data set with Fusarium moniliforme (50 ppm) worked out at 34%; in the data set with Fusarium moniliforme (100 ppm), 41%.

As for `C=CC[Si](C)(Cn1cncn1)C[Si](CC=C)(CC=C)CC=C` (stereo not drawn) [4-methyl-6-bis(2-propenyl)-4,6-disila-4-(1H-1,2,4-triazol-1-ylmethyl)-1,8-nonadiene], the inhibition of growth at 50 ppm is 70% in data set [1]; 45% with Phytophthora capsisi; 100% in the data set on Pyricalaria oryzae; 82% with Glomerella cingulata; 80% in the data set on Physalospora baccae; 96% with Rhizoctonia solani. The inhibition of growth at 50 ppm turned out to be 75% in the data set on Alternaria mali, 60% in the data set on Rhizopus sp. (setting [2]) and 60% in the data set on Botry tris cinerea. For the same compound, the inhibition of growth at 100 ppm came out at 75% in data set [1]; 50% in the data set with Phytophthora capsisi; 100% in the data set on Pyricalaria oryzae; 87% in the data set with Glomerella cingulata; 85% in the data set with Physalospora baccae; 96% in the data set with Rhizoctonia solani. For the same compound, the inhibition of growth at 100 ppm was found to be 95% in the data set on Alternaria mali, 80% in the data set on Rhizopus sp. (setting [3]) and 80% with Botry tris cinerea. Further, the “% controlled, Fu. mo.” value is 46% in the data set on Fusarium moniliforme (50 ppm) and 65% in the data set with Fusarium moniliforme (100 ppm).

As for `C=CC[Si](C)(Cn1cncn1)C[Si](CC=C)(c1ccccc1)c1ccc(-c2ccccc2)cc1` (stereo not drawn) [4-methyl-6-phenyl-6-(4-phenylphenyl)-4,6-disila-4-(1H-1,2,4-triazol-1-ylmethyl)-1,8-nonadiene], the inhibition of growth at 50 ppm in [1] amounted to 100%; with Phytophthora capsisi, 38%; with Pyricalaria oryzae, 100%; in the data set with Glomerella cingulata it was 100%; with Physalospora baccae it was 84%; in the data set with Rhizoctonia solani it was 80%. For the same compound, the figures for the inhibition of growth at 50 ppm with Alternaria mali, with Rhizopus sp. (setting [2]) and in the data set on Botry tris cinerea were 72%, 40% and 77%, respectively. For the same compound, the inhibition of growth at 100 ppm is 100% in data set [1]; 60% in the data set with Phytophthora capsisi; 100% with Pyricalaria oryzae; 100% in the data set on Glomerella cingulata; 100% with Physalospora baccae; 100% in the data set with Rhizoctonia solani. For the same compound, the inhibition of growth at 100 ppm was found to be 100% with Alternaria mali, 56% in the data set with Rhizopus sp. (setting [3]) and 100% in the data set on Botry tris cinerea. Moreover, the “% controlled, Fu. mo.” value in the data set with Fusarium moniliforme (50 ppm) and in the data set on Fusarium moniliforme (100 ppm) was 100% in each case.

With `C=CC[Si](C)(Cn1cncn1)C[Si](CC=C)(c1ccc(F)cc1)c1ccc(F)cc1` (stereo not drawn) [6,6-bis(4-fluorophenyl)-4-methyl-4,6-disila-4-(1H-1,2,4-triazol-1-ylmethyl)-1,8-nonadiene], the inhibition of growth at 50 ppm amounted to 100% in data set [1]; 21% with Phytophthora capsisi; 85% in the data set with Pyricalaria oryzae; 100% in the data set on Glomerella cingulata; 60% in the data set with Physalospora baccae; 75% with Rhizoctonia solani. Further, the figures for the inhibition of growth at 50 ppm in the data set with Alternaria mali, in the data set on Rhizopus sp. (setting [2]) and in the data set with Botry tris cinerea were 78%, 100% and 86%, respectively. Moreover, the inhibition of growth at 100 ppm in data set [1] is 100%; with Phytophthora capsisi, 100%; with Pyricalaria oryzae, 100%; in the data set with Glomerella cingulata it was 100%; with Physalospora baccae it was 80%; in the data set with Rhizoctonia solani it was 87%. The inhibition of growth at 100 ppm with Alternaria mali, with Rhizopus sp. (setting [3]) and in the data set on Botry tris cinerea was 100% in each case. For the same compound, the “% controlled, Fu. mo.” value in the data set on Fusarium moniliforme (50 ppm) and in the data set with Fusarium moniliforme (100 ppm) was 100% in each case.
